From publication PMC9200282, “GPR15L is an epithelial inflammation-derived pruritogen” (Science Advances, 2022)

Tests used:
DRG neurons = test: Calcium imaging of dissociated DRG neurons expressing GCaMP6f; format: cell-based, mouse; settings: chloroquine 100 μM, histamine 100 μM, capsaicin 10 μM, sequential challenge
Description: Primary cultures of DRG neurons were generated from C57BL/6N mice as described previously ([65]). […] Imaging was performed with an ORCA-Flash 4.0 […] digital complementary metal-oxide semiconductor camera (Hamamatsu, Bridgewater, NJ) at 1 Hz. Fluorescence intensity in hand-drawn regions of interest was extracted using HCImage (Hamamatsu) and plotted against time. The R package […] was used to generate a heatmap plot to visualize fluorescence signals in all the neurons.

Mrgpra3 DRG neurons = test: Whole-cell patch clamp of Mrgpra3-Cre-eGFP DRG neurons; format: cell-based, mouse; settings: chloroquine 100 μM, pH 7.4
Description: Whole-cell patch clamp was performed on Mrgrpa3-Cre-eGFP neurons as previously described ([67]). Briefly, DRG neurons collected from Mrgpra3-Cre-eGFP mice were cultured on coverslips for 48 to 72 hours. Whole-cell current clamp recordings were performed on dissociated DRG neurons expressing eGFP. Data were recorded with an Axon 700B amplifier and pCLAMP 11 software (Molecular Devices, Sunnyvale). Pipette electrodes were pulled with P-97 microelectrode puller (Sutter Instrument) from borosilicate glass (World Precision Instruments Inc.) with resistances of 2 to 4 megohms. The extracellular solution contained 140 mM NaCl, 4 mM KCl, 2 mM CaCl2, 1 mM MgCl2, 10 mM Hepes, and 10 mM glucose with a pH of 7.4 and an osmolality of 300 mosm/kg. The pipette solution contained 140 mM KCl, 1 mM MgCl2, 1 mM EGTA, 10 mM Hepes, 3 mM adenosine 5′-triphosphate, and 0.5 mM guanosine 5′-triphosphate with a pH of 7.4 and an osmolality of 300 mosm/kg.

mast cell = settings: through MRGPRs; cited from earlier work
From the text: In particular, MRGPRX2 and the mouse ortholog Mrgprb2 are receptors for many cationic molecules ([22]–[25]). Activation of MRGPRs on mast cells can cause immunoglobulin E–independent allergic reactions (pseudo-allergy) including extravasation, itch, and pain ([22], [26]). Some human and tick β-defensins can activate not only MRGPRX2/Mrgprb2 but also MRGPRX1/Mrgprc11, which are expressed on sensory neurons ([27]).

COc1cc(CNC(=O)CCCC/C=C/C(C)C)ccc1O [capsaicin]
response of Gpr15l-responsive DRG neurons to other pruritogens/capsaicin (DRG neurons): The majority of these neurons also responded

CCN(CC)CCCC(C)Nc1ccnc2cc(Cl)ccc12 (centres unmarked) [chloroquine]
neurons firing action potentials (Mrgpra3 DRG neurons): 7/8 | response of Gpr15l-responsive DRG neurons to other pruritogens/capsaicin (DRG neurons): The majority of these neurons also responded

NCCc1c[nH]cn1 [histamine]
response of Gpr15l-responsive DRG neurons to other pruritogens/capsaicin (DRG neurons): The majority of these neurons also responded

LL-37: cationic antimicrobial peptide, cathelicidin (LLGDFFRKSKEKIGKEFKRIVQRIKDFLRNLVPRTES; Antibacterial peptide LL-37; UniProt P49913 134-170, looked up)
mast cell degranulation (mast cell): can cause mast cell degranulation
